Data on twelve molecules can be found in US11851449B2, “Heterocyclic amide compounds having an RORvt inhibitory action” (TAKEDA PHARMACEUTICAL COMPANY LIMITED, priority 2013, dated 2023).

SMILES strings stand for the structures. Where two headings read alike, the source gives them in different places.

The test system of experiment [1] is IL-17A gene expression. The experiment can be described thus: Effect on IL-23-induced IL-17A gene expression in mice. It counts as in vivo. Conditions: Balb/c mice, ear tissue 24 hr after intradermal IL-23; 100 mg/kg orally 30 min before and 8 hr after IL-23; versus the negative control group. As to the method:
Effect on IL-23-Induced IL-17A Gene Expression in Mice
A mouse IL-23 solution (500 ng/10 μL, prepared by Takeda Pharmaceutical Company Limited) or PBS (10 μL, negative control group) was administered intradermally in the ear of Balb/c mice (Charles River Japan, male, 7 weeks old). Twenty-four hr after administration, the ear was resected under isoflurane anesthesia. The test compound was suspended in 0.5% methylcellulose and administered orally 30 min before and 8 hr after IL-23 administration.
RNA extraction from the ear tissue and quantitative PCR were performed as follows. Specifically, ear tissue 5 mm in diameter was punched from an area of the resected ear centering on the IL-23 injection site, and the tissue was immersed in RNAlater (QIAGEN) for at least 18 hr. The RNAlater-treated ear tissue was homogenized in 350 μL of RLT buffer (RNeasy mini kit, QIAGEN) and treated (55° C., 10 min) with Proteinase K (QIAGEN). Total RNA was then extracted according to the RNeasy mini kit protocol. The RNA thus obtained was then reverse transcribed into cDNA using the High-Capacity RNA-to-cDNA kit (Applied Biosystems), and the amount of each cytokine expressions was measured by real-time PCR (Viia7™, Applied Biosystems). The PCR buffer used was TaqMan Fast Advanced Master Mix (Applied Biosystems), and TaqMan Gene Expression Assays (Applied Biosystems) Mm00439618 m1 (IL-17A) and 4352341E (β-actin) were used for cytokine gene detection. The IL-17A gene expression level was normalized to the β-actin gene expression level, and the percent inhibition of IL-17A gene expression with the test compound was then calculated.
The results obtained with the above-described method (percent inhibition of IL-17A gene expression with oral administration of the test compound) are shown in Table 3.

In experiment [2] the target is T1, RORγt (Homo sapiens, UniProt P51449).
T1 sequence (P51449 1-497 isoform P51449-2): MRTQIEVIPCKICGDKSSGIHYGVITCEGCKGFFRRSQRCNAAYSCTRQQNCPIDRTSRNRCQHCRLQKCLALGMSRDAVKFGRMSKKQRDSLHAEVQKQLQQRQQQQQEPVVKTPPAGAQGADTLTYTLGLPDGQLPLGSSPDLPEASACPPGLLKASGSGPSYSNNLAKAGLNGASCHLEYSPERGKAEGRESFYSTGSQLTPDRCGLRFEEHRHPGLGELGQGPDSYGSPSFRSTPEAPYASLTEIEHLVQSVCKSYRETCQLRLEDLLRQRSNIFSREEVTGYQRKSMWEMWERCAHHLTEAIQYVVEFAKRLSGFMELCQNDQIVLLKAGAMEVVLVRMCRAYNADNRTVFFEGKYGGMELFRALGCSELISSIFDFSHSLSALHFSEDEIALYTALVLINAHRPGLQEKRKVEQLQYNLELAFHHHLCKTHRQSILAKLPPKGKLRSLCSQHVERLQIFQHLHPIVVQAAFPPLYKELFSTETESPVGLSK
The experiment can be described thus: RORγt binding test (TR-FRET, fluorescent-labeled cholesterol). Conditions: read-out: binding inhibitory rate (%) of fluorescent-labeled cholesterol to RORγt at test compound 1 μM. The gist of the method: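 His-tagged RORγt and BODIPY-cholesterol were incubated with compound for 20 min at room temperature in Tris-HCl pH 7.5, 100 mM NaCl, 1 mM DTT and 0.1% BSA. Terbium anti-His antibody was then added for a further 20 min.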
(In general: TR-FRET usually uses a lanthanide donor and a delayed reading to cut background.)

The target of experiment [3] is T1, RORγt. The experiment can be described thus: Cofactor recruitment test (Alpha Screen, biotinylated SRC-1 peptide). The settings on record: read-out: signal value inhibitory rate (%) at test compound 1 μM. In kind it is biochemical. As for the experimental part:
Cofactor Recruitment Test
Cofactor recruitment test was performed by Alpha Screen (Histidine Detection Kit, PerkinElmer) method. First, a test compound was diluted with an assay buffer (50 mM Tris-HCl (pH 7.5), 50 mM KCl, 1 mM DTT, 0.1% BSA) and added to a 384 well plate by 5 μL. […] The mixture was stood in a dark place for 1 hr, and the signal value was measured by Envision (PerkinElmer).

The target in experiment [4] is T1, RORγt. Nature of the experiment: Jurkat reporter test (human IL-17 ROR response element luciferase reporter). It counts as cell-based. Conditions: read-out: luminescence level inhibitory rate (%) at test compound 3 μM. Put shortly:
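Jurkat cells were electroporated (1350 V, 10 ms, 3 pulses) with reporter constructs, then cultured overnight with compound in RPMI containing 10% lipid-reduced FCS, 10 mM HEPES pH 7.5 and 5 μM lovastatin. Luciferase was quantified by Bright-Glo luminescence after 10 min at room temperature.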
For orientation: Reporter assays use an easily measured gene product as a stand-in for the process of interest.

Where [5] appears, read: test compound 3 μM, Jurkat cells.

Consider `COc1ccc([C@H](C(=O)Nc2ccc([Si](C)(C)C)cc2)N(C)C(=O)c2cc(O)no2)cc1` [Example 14, 3-hydroxy-N-((1R)-1-(4-methoxyphenyl)-2-oxo-2-((4-(trimethylsilyl)phenyl)amino)ethyl)-N-methyl-1,2-oxazole-5-carboxamide], for which the “percent inhibition of IL-17A gene expression” value (from here on “percent inhibition”) in experiment [1] came out at 53%.

Consider `COc1ccc([C@H](C(=O)Nc2cc(F)c([Si](C)(C)C)c(F)c2)N(C)C(=O)c2cc(O)no2)cc1` [Example 23, N-((1R)-2-((3,5-difluoro-4-(trimethylsilyl)phenyl)amino)-1-(4-methoxyphenyl)-2-oxoethyl)-3-hydroxy-N-methyl-1,2-oxazole-5-carboxamide], for which, in experiment [1], the “percent inhibition” value worked out at 71%.

In the case of `COCc1ccc([C@@H](NC(=O)Cc2cc(O)no2)C(=O)Nc2ccc(C(C)(C)C)c(F)c2)cc1` [Example 106, (2R)—N-(4-tert-butyl-3-fluorophenyl)-2-(((3-hydroxy-1,2-oxazol-5-yl)acetyl)amino)-2-(4-(methoxymethyl)phenyl)acetamide], the figures for the inhibition at 1 µM in experiment [2] and in experiment [3] were 103% and 88%, respectively. Besides, in experiment [4] (setting [5]), the inhibition at 3 µM came to 99.8%. Further, the “percent inhibition” value in experiment [1] is 43%.

`COCc1ccc([C@@H](NC(=O)CCC(=O)O)C(=O)Nc2cc(F)c([Si](C)(C)C)c(F)c2)cc1` [Example 108, 4-(((1R)-2-((3,5-difluoro-4-(trimethylsilyl)phenyl)amino)-1-(4-(methoxymethyl)phenyl)-2-oxoethyl)amino)-4-oxobutanoic acid]: the values for the inhibition at 1 µM in experiment [2] and in experiment [3] were 100% and 95.3%, respectively. In addition, the inhibition at 3 µM in experiment [4] (Jurkat) came out at 99.7%.

Consider `CC(C)(C)c1ccc(NC(=O)[C@H](NC(=O)[C@@H]2CNC(=O)C2)c2ccc3c(c2)CCO3)cc1F` [Example 111, (3S)—N-((1R)-2-((4-tert-butyl-3-fluorophenyl)amino)-1-(2,3-dihydro-1-benzofuran-5-yl)-2-oxoethyl)-5-oxopyrrolidine-3-carboxamide], for which the inhibition at 1 µM was 100% in experiment [2] and 53% in experiment [3]. In addition, the inhibition at 3 µM in experiment [4] (setting [5]) came to 97.4%.

In the case of `Cn1ncc2cc([C@@H](NC(=O)[C@@H]3CNC(=O)C3)C(=O)Nc3ccc([Si](C)(C)C)c(F)c3)ccc21` [Example 112, (3S)—N-((1R)-2-((3-fluoro-4-(trimethylsilyl)phenyl)amino)-1-(1-methyl-1H-indazol-5-yl)-2-oxoethyl)-5-oxopyrrolidine-3-carboxamide], the figures for the inhibition at 1 µM in experiment [2] and in experiment [3] were 103% and 83.2%, respectively. The inhibition at 3 µM in experiment [4] (Jurkat) came out at 100%.

As to `COCc1ccc([C@@H](NC(=O)[C@H]2CNC(=O)C2)C(=O)Nc2cc(F)c(C(C)(C)C)c(F)c2)cc1` [Example 113, (3R)—N-((1R)-2-((4-tert-butyl-3,5-difluorophenyl)amino)-1-(4-(methoxymethyl)phenyl)-2-oxoethyl)-5-oxopyrrolidine-3-carboxamide], the results for the inhibition at 1 µM in experiment [2] and in experiment [3] were 102% and 83.9%, respectively. For the same molecule, in experiment [4] (setting [5]), the inhibition at 3 µM worked out at 99.7%.

Turning to `COCc1ccc([C@@H](NC(=O)Cc2cc(O)no2)C(=O)Nc2cc(F)c(C(C)(C)C)c(F)c2)cc1` [Example 114, (2R)—N-(4-tert-butyl-3,5-difluorophenyl)-2-(((3-hydroxy-1,2-oxazol-5-yl)acetyl)amino)-2-(4-(methoxymethyl)phenyl)acetamide], the inhibition at 1 µM in experiment [2] was found to be 101%; in experiment [3], 90.1%. In experiment [4] (setting [5]), the inhibition at 3 µM came to 102%.

With `COCc1ccc([C@@H](NC(=O)Cn2ccc(=O)[nH]c2=O)C(=O)Nc2ccc(C(C)(C)C)c(F)c2)cc1` [Example 116, (2R)—N-(4-tert-butyl-3-fluorophenyl)-2-(((2,4-dioxo-3,4-dihydropyrimidin-1(2H)-yl)acetyl)amino)-2-(4-(methoxymethyl)phenyl)acetamide], the inhibition at 1 µM in experiment [2] came out at 103%; in experiment [3] it was 76.6%. The inhibition at 3 µM in experiment [4] (setting [5]) was found to be 99.8%.

As to `COCc1ccc([C@@H](NC(=O)CC2CC(=O)NC(=O)C2)C(=O)Nc2ccc(C(C)(C)C)c(F)c2)cc1` [Example 117, (2R)—N-(4-tert-butyl-3-fluorophenyl)-2-(((2,6-dioxopiperidin-4-yl)acetyl)amino)-2-(4-(methoxymethyl)phenyl)acetamide], the inhibition at 1 µM amounted to 103% in experiment [2] and 78.4% in experiment [3]. Moreover, the inhibition at 3 µM in experiment [4] (setting [5]) was found to be 98.5%.

As for `COc1ccc(C(NC(=O)Cn2cnc3ccccc32)C(=O)Nc2ccc([Si](C)(C)C)cc2)cc1` (stereo not drawn) [Example 289, 2-((1H-benzimidazol-1-ylacetyl)amino)-2-(4-methoxyphenyl)-N-(4-(trimethylsilyl)phenyl)acetamide], the figures for the inhibition at 1 µM in experiment [2] and in experiment [3] were 99.6% and 87.2%, respectively. Further, in experiment [4] (Jurkat), the inhibition at 3 µM came to 100%.

For the molecule `Cn1ncc2cc([C@@H](NC(=O)Cc3cc(O)no3)C(=O)Nc3cc(F)c(C(C)(C)C)c(F)c3)ccc21` [Example 419, (2R)-N-(4-tert-butyl-3,5-difluorophenyl)-2-(((3-hydroxy-1,2-oxazol-5-yl)acetyl)amino)-2-(1-methyl-1H-indazol-5-yl)acetamide], the values for the inhibition at 1 µM in experiment [2] and in experiment [3] were 103% and 87%, respectively. In addition, in experiment [4] (setting [5]), the inhibition at 3 µM amounted to 101%.
